This is an account of results in US20230128972A1, “Anat Inhibitors and Methods of Use Thereof” (Atomwise Inc., priority 2020, published 2023).

SMILES strings stand for the structures.

The target in the test is T1, aspartate N-acetyltransferase (ANAT) (Homo sapiens, UniProt Q8N9F0).
T1 construct: 6xHis (C); made in house; host or cells: E. coli BL21(DE3)
T1 sequence (Q8N9F0 1-302): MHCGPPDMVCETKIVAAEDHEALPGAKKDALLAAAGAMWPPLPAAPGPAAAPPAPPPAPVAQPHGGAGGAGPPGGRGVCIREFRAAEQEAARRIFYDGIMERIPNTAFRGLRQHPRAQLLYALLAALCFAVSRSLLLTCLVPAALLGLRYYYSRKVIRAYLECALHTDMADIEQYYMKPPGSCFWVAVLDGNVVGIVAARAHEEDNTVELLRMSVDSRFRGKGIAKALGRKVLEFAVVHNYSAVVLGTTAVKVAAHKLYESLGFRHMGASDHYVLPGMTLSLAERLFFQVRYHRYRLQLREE
The test is described as follows: ANAT in vitro activity assay (DTNB, coenzyme A production). Type of test: biochemical. The conditions noted are these: for Ki: dose-response protocol, competitive inhibition fit, Km for L-aspartate 160 μM; for potency against ANAT: dose-response protocols, in words. The protocol:
The experimental assay was based on a custom protocol developed by the Viola lab described previously (see, e.g., Thangavelu et al., 2017, “Design and optimization of aspartate N-acetyltransferase inhibitors for the potential treatment of Canavan disease,” Bioorganic & Medicinal Chemistry, 25(3), pp. 870-885). Each of the purchased compounds was tested in an initial screen at 1 mM, followed by a second screen of the initial inhibitors at 50 μM.
The challenge of solubilizing and purifying the membrane-associated enzyme ANAT has been addressed through the creation of a fusion construct with maltose binding protein (MBP) as a fusion partner, as described previously. Briefly, aspartate ANAT was expressed with an N-terminal MBP tag in E. coli BL21(DE3) cells. A 6×His-tag was inserted at the C-terminal of the enzyme to facilitate purification. 20 ml LB media was grown overnight from a single colony in the presence of kanamycin at a final concentration of 50 μg/ml at 37° C. The overnight culture was then diluted into 2 L LB media and grown with shaking at 37° C. until the OD600 reached 0.6. Isopropyl β-D-thiogalactopyranoside (IPTG) was then added at a final concentration of 0.1 mM for induction, and cell growth continued at 16° C. for 16-20 hours. The cell culture was harvested by centrifugation at 11,000 rpm for 15 min. The cells were then resuspended in binding buffer consisting of 20 mM potassium phosphate, pH 7.4, 300 mM NaCl, 20 mM imidazole, and 10% glycerol. The cells were lysed by adding lysozyme (50 μg/ml of buffer) and DNAse (5 μg/ml of buffer) in an ultrasonic dismembrator, followed by clarification of the cells by centrifugation at 11,000 rpm to remove the insoluble cell debris. The clarified supernatant was loaded onto a Ni-NTA column and eluted with a 20-300 mM imidazole gradient in the binding buffer using an AKTA chromatography system. The fractions containing active enzyme purified from the Ni-NTA column were pooled and loaded onto a dextrin-Sepharose column for further purification. The MBP-ANAT fusion enzyme was eluted from this column by using a 0-10 mM maltose gradient. SDS-PAGE gel was run to confirm the molecular weight and purity of the enzyme.
ANAT activity was measured by monitoring the production of coenzyme A using 5,5′-dithio-bis-[2-nitrobenzoic acid] (DTNB). […] The increasing absorption at 412 nm was monitored for up to 30 min during the reaction. 10% DMSO was maintained in the first screen while 20% DMSO was used in the second screen to dissolve the insoluble or partially soluble compounds in the assay wells.
Ki was calculated using the competitive inhibition routine within the nonlinear regression module of GraphPad Prism 8.3.0 with the following equation: […]
where Km for L-aspartate was set to 160 μM, and [I] and [S] denote the concentrations of the inhibitor and substrate, respectively.

What is called Ki is the dissociation constant of the complex between target and ligand, obtained from inhibition or displacement. With `CCOC(=O)c1sc(NC(=O)COC(=O)Cn2c(=O)cnc3ccccc32)cc1C` [Formula 2, Ethyl 3-methyl-5-{2-[(2-oxo-1H-quinoxalin-1-yl)acetoxy]acetylamino}-2-thenoate], affinity was put at a Ki of 8.5 µM and the “potency against ANAT” value is recorded as “low-micromolar”.
On the same counts, the results for `Cc1nnc(SCc2nnc(-c3c(-c4ccccc4)noc3C)o2)s1` [Formula 3, 5-(5-Methyl-3-phenyl-4-isoxazolyl)-2-[(5-methyl-1,3,4-thiadiazol-2-ylthio)methyl]-1,3,4-oxadiazole] are 9.1 µM and “low-micromolar”.
On the same counts, the results for `Nc1cc(N)nc(SCc2ncc(-c3ccc(F)cc3)o2)n1` [Formula 1, 2-{[5-(p-Fluorophenyl)-1,3-oxazol-2-yl]methylthio}-4,6-pyrimidinediamine] are 8.2 µM and “low-micromolar”.
On the same counts, the results for `O=C(OCCSc1ccc([N+](=O)[O-])c2nonc12)c1ccc(Cl)cc1Cl` [Formula 5, 2-(7-Nitro-2,1,3-benzofurazan-4-ylthio)ethyl 2,4-dichlorobenzoate] are 0.91 µM and “low-micromolar”.
For `Cc1c(C(=O)O)sc2[nH]c(=O)cc(CSc3nnc(C4CC4)[nH]3)c12` [Formula 4, 4-[(5-Cyclopropyl-4H-1,2,4-triazol-3-ylthio)methyl]-3-methyl-6-oxo-1-thia-7-aza-7H-indene-2-carboxylic acid], the Ki worked out at 4.5 µM and the “potency against ANAT” value is given as “low-micromolar”.
